Measured values published in ChEMBL document CHEMBL4842340, “Development of Cagrilintide, a Long-Acting Amylin Analogue” (J Med Chem, 2021).
Converted amounts (≈) assume the structure as drawn. *1 amine or outer side, *2 acyl side, *3 side chain or, on linkers, in order; H or OH if unused. Where a SMILES comes first, the peptide text is derived from it. Bridges are numbered along the chain shown (N, C = ends). [ ]: non-standard residue; d: D form. The star is where a group is joined. X1 = O=C(NC(=O)[C@H](Cc1cnc[nH]1)N[*:1])[C@@H](Cc1cnc[nH]1)C(=O)[*:2]; C20 diacid = O=C(O)CCCCCCCCCCCCCCCCCCC(=O)*; γGlu = O=C(O)[C@H](CCC(=O)[*:2])N[*:1]; hArg = N=C(N)NCCCC[C@H](N)C(=O)O; AEEA = NCCOCCOCC(=O)O

Legend:
[1] = Agonist activity at human AMY3R (CT+RAMP3) expressed in Hollex1 cells incubated for 3 hrs by luminescence assay; type: cell-based; settings: Hollex1, 3 h
[2] = Agonist activity at human calcitonin receptor expressed in BHK570 cells assessed as increase in intracellular cAMP concentration incubated for 3 hrs in absence of albumin by CRE luciferase reporter gene assay; type: cell-based; settings: BHK570, 3 h
Homo sapiens [3] = species: Homo sapiens; assay: Ratio of EC50 for human calcitonin receptor expressed in BHK570 cells to EC50 for human AMY3R (CT+RAMP3) expressed in Hollex1 cells; type: cell-based
[4] = Agonist activity at rat AMY3R (CT+RAMP3) expressed in tk-ts13 cells assessed as increase in intracellular cAMP level incuabted for 25 mins by CRE luciferase reporter gene assay; type: cell-based; settings: tk-ts13, 25 min
[5] = Agonist activity at rat calcitonin receptor expressed in BHK-13 cells assessed as increase in intracellular cAMP concentration incubated for 25 mins by CRE luciferase reporter gene assay; type: cell-based; settings: BHK-13, 25 min
Rattus norvegicus [6] = species: Rattus norvegicus; assay: Ratio of EC50 for rat calcitonin receptor expressed in BHK-13 cells to EC50 for rat AMY3R (CT+RAMP3) expressed in tk-ts13 cells; type: cell-based
[7] = Displacement of [125I]-amylin from human AMY3R (CTR+RAMP3) expressed in BHK-13 cells measured after 120 mins by scintillation proximity assay; type: cell-based
[8] = Displacement of [125I]-calcitonin from human calcitonin receptor expressed in tk-ts 13 cells measured after 120 mins by scintillation proximity assay; type: cell-based; settings: tk-ts13
Homo sapiens [9] = species: Homo sapiens; assay: Ratio of IC50 for displacement of [125I]-calcitonin from human calcitonin receptor expressed in tk-ts 13 cells to IC50 for displacement of [125I]-amylin from human AMY3R (CTR+RAMP3) expressed in BHK-13 cells; type: cell-based
[10] = Displacement of [125I]-amylin from rat AMY3R (CTR+RAMP3) expressed in BHK-13 cells measured after 120 mins by scintillation proximity assay; type: cell-based
[11] = Displacement of [125I]-calcitonin from rat calcitonin receptor expressed in tk-ts 13 cells measured after 120 mins by scintillation proximity assay; type: cell-based; settings: tk-ts13
Rattus norvegicus [12] = species: Rattus norvegicus; assay: Ratio of IC50 for displacement of [125I]-calcitonin from rat calcitonin receptor expressed in tk-ts 13 cells to IC50 for displacement of [125I]-amylin from rat AMY3R (CTR+RAMP3) expressed in BHK-13 cells; type: cell-based
[13] = Solubility of the compound in lactate at pH 3 by UPLC analysis; type: physicochemical; settings: lactate buffer
[14] = Solubility of the compound in lactate at pH 4 by UPLC analysis; type: physicochemical; settings: lactate buffer
[15] = Solubility of the compound in lactate at pH 5 by UPLC analysis; type: physicochemical; settings: lactate buffer
[16] = Solubility of the compound in bis-tris propane at pH 6 by UPLC analysis; type: physicochemical; settings: bis-tris propane buffer
[17] = Solubility of the compound in bis-tris propane at pH 6.5 by UPLC analysis; type: physicochemical; settings: bis-tris propane buffer
[18] = Solubility of the compound in bis-tris propane at pH 7 by UPLC analysis; type: physicochemical; settings: bis-tris propane buffer
[19] = Solubility of the compound in bis-tris propane at pH 7.5 by UPLC analysis; type: physicochemical; settings: bis-tris propane buffer
[20] = Solubility of the compound in bis-tris propane at pH 8 by UPLC analysis; type: physicochemical; settings: bis-tris propane buffer
Insulin (Homo sapiens) [21] = biological target: Insulin (Homo sapiens) (UniProt P01308); assay: Effect on insulin (unknown origin) amyloid fibril formation assessed as lag time in glycyl-glycine buffer at pH 4 measured after 45 hrs by thioflavin-T fluorescence assay
Insulin (Homo sapiens) [22] = biological target: Insulin (Homo sapiens) (UniProt P01308); assay: Effect on insulin (unknown origin) amyloid fibril formation assessed as peptide recovery in glycyl-glycine buffer at pH 4 measured after 45 hrs by thioflavin-T fluorescence assay relative to control; parameters: concentration or dose not given beside the values
Rattus norvegicus [23] = assay: Reduction in food intake in Sprague-Dawley rat at 30 nmol/kg, sc administered as single dose measured upto 24 hrs relative to control; type: functional; parameters: scale not given: the % may be the effect or the level left; settings: time hrs <=24
Rattus norvegicus [24] = assay: Reduction in food intake in Sprague-Dawley rat at 30 nmol/kg, sc administered as single dose measured after 24 to 48 hrs relative to control; type: functional; parameters: scale not given: the % may be the effect or the level left; settings: time 24-48 hrs

Sequence of Insulin (Homo sapiens) (P01308 whole entry): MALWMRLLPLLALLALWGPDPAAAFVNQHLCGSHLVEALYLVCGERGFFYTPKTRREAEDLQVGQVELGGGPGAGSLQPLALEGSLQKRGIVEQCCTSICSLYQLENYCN

Row | Compound | EC50 [1] [pM] | EC50 [2] [pM] | Ratio EC50 (Homo sapiens [3]) | EC50 [4] [pM] | EC50 [5] [pM] | Ratio EC50 (Rattus norvegicus [6]) | IC50 [7] [pM] | solubility [13] [µM] | solubility [14] [µM] | solubility [15] [µM] | solubility [16] [µM] | solubility [17] [µM] | solubility [18] [µM] | solubility [19] [µM] | solubility [20] [µM] | TIME (Insulin (Homo sapiens) [21]) [h] | Activity (Insulin (Homo sapiens) [22]) [%] | Activity (Rattus norvegicus [23]) [%] | Activity (Rattus norvegicus [24]) [%] | also measured
1 | CC[C@H](C)[C@H](NC(=O)[C@@H]1CCCN1C(=O)CNC(=O)[C@H](Cc1ccccc1)NC(=O)[C@H](CC(N)=O)NC(=O)[C@H](CC(N)=O)NC(=O)[C@H](CO)NC(=O)[C@H](CO)NC(=O)[C@H](Cc1cnc[nH]1)NC(=O)[C@H](Cc1cnc[nH]1)NC(=O)[C@H](CC(C)C)NC(=O)[C@H](Cc1ccccc1)NC(=O)[C@H](CC(N)=O)NC(=O)[C@H](C)NC(=O)[C@H](CC(C)C)NC(=O)[C@H](CCCNC(=N)N)NC(=O)[C@H](CCC(N)=O)NC(=O)[C@@H](NC(=O)[C@H](C)NC(=O)[C@@H]1CSSC[C@H](NC(=O)[C@H](CCCNC(=N)N)NC(=O)[C@H](CCCNC(=N)N)NC(=O)[C@H](CCCNC(=N)N)NC(=O)COCCOCCNC(=O)COCCOCCNC(=O)CC[C@H](NC(=O)CCCCCCCCCCCCCCCCCCC(=O)O)C(=O)O)C(=O)N[C@@H](CC(N)=O)C(=O)N[C@@H]([C@@H](C)O)C(=O)N[C@@H](C)C(=O)N[C@@H]([C@@H](C)O)C(=O)N1)[C@@H](C)O)C(=O)N[C@@H](CC(C)C)C(=O)N1CCC[C@H]1C(=O)N1CCC[C@H]1C(=O)N[C@H](C(=O)N[C@@H](CC(N)=O)C(=O)N[C@H](C(=O)NCC(=O)N[C@@H](CO)C(=O)N[C@@H](CCCNC(=N)N)C(=O)N[C@H](C(=O)N[C@@H](Cc1ccc(O)cc1)C(N)=O)[C@@H](C)O)C(C)C)[C@@H](C)O ({C20 diacid-γGlu-AEEA-AEEA}-RRRCNTATCATQRLANFLHHSSNNFGPILPPTNVGSRTY-NH2; disulfide 4-9) | 76 | 1240 | 16 | 130 | 12100 | 93 | 213 | 200 (≈ 1020 µg/mL) | 200 (≈ 1020 µg/mL) | 200 (≈ 1020 µg/mL) | 200 (≈ 1020 µg/mL) | 200 (≈ 1020 µg/mL) | 200 (≈ 1020 µg/mL) | 200 (≈ 1020 µg/mL) | 200 (≈ 1020 µg/mL) | 45 | 93 | 32 | 0 | IC50 [8]: 9180 pM; Ratio IC50 (Homo sapiens [9]): 43; IC50 [10]: 648 pM; IC50 [11]: 89200 pM; Ratio IC50 (Rattus norvegicus [12]): 138
2 | CC[C@H](C)[C@H](NC(=O)[C@@H]1CCCN1C(=O)CNC(=O)[C@H](Cc1ccccc1)NC(=O)[C@H](CC(N)=O)NC(=O)[C@H](CC(N)=O)NC(=O)[C@H](CO)NC(=O)[C@H](CO)NC(=O)[C@H](Cc1cnc[nH]1)NC(=O)[C@H](Cc1cnc[nH]1)NC(=O)[C@H](CC(C)C)NC(=O)[C@H](Cc1ccccc1)NC(=O)[C@H](CC(N)=O)NC(=O)[C@H](C)NC(=O)[C@H](CC(C)C)NC(=O)[C@H](CCCCNC(=N)N)NC(=O)[C@H](CCC(N)=O)NC(=O)[C@@H](NC(=O)[C@H](C)NC(=O)[C@@H]1CSSC[C@H](NC(=O)[C@H](Cc2cnc[nH]2)NC(=O)[C@H](Cc2cnc[nH]2)C(=O)NC(=O)[C@H](Cc2cnc[nH]2)NC(=O)CC[C@H](NC(=O)CCCCCCCCCCCCCCCCCCC(=O)O)C(=O)O)C(=O)N[C@@H](CC(N)=O)C(=O)N[C@@H]([C@@H](C)O)C(=O)N[C@@H](C)C(=O)N[C@@H]([C@@H](C)O)C(=O)N1)[C@@H](C)O)C(=O)N[C@@H](CC(C)C)C(=O)N1CCC[C@H]1C(=O)N1CCC[C@H]1C(=O)N[C@H](C(=O)N[C@@H](CC(N)=O)C(=O)N[C@H](C(=O)NCC(=O)N[C@@H](CO)C(=O)N[C@@H](CC(N)=O)C(=O)N[C@H](C(=O)N[C@@H](Cc1ccc(O)cc1)C(N)=O)[C@@H](C)O)C(C)C)[C@@H](C)O ({C20 diacid-γGlu}-[X1]HCNTATCATQ[hArg]LANFLHHSSNNFGPILPPTNVGSNTY-NH2; disulfide 3-8) | 102 | 391 | 4 | 321 | 4480 | 7 | 1110 | 200 (≈ 953 µg/mL) | 200 (≈ 953 µg/mL) | 200 (≈ 953 µg/mL) | 200 (≈ 953 µg/mL) | 50 (≈ 238 µg/mL) | 2 (≈ 9.53 µg/mL) | 7 (≈ 33.4 µg/mL) | 25 (≈ 119 µg/mL) | 4 | 21 | 24 | 2 | –
